Columns and labels:
[1] = molecular target: dopamine transporter (Homo sapiens, UniProt Q01959); assay: Non-epigenetic target panel, dopamine transporter binding; conditions: at 10 µM
[2] = molecular target: serotonin transporter (Homo sapiens, UniProt P31645); assay: Non-epigenetic target panel, serotonin transporter binding; conditions: at 10 µM
[3] = molecular target: T1, p300-BHC (Homo sapiens, UniProt Q09472); assay: AlphaLISA-based peptide substrate binding assay
[4] = system: 22Rv1 cells; assay: Proliferation of androgen depleted 22Rv1 cells; type: cell-based; conditions: absence of androgens
[5] = system: PSA expression in LnCaP-FGC cells; assay: qRT-PCR of DHT-stimulated PSA expression in LnCaP-FGC cells; type: cell-based; conditions: 7 h and 24 h
[6] = system: PSA expression in 22Rv1 cells; assay: qRT-PCR of PSA expression in androgen depleted 22Rv1 cells; type: cell-based; conditions: absence of androgens, 7 h and 24 h
[7] = system: H3K27Ac and AR occupancy at the PSA enhancer, LnCaP-FGC cells; assay: ChIP at the PSA enhancer in DHT-stimulated LnCaP-FGC cells; type: cell-based; conditions: DHT 6 h
[8] = system: c-Myc expression in 22Rv1 cells; assay: c-Myc expression in androgen depleted 22Rv1 cells; type: cell-based
[9] = system: LuCaP-77 CR xenograft; assay: LuCaP-77 CR castration resistant prostate cancer xenograft model; type: in vivo, SCID male mice; conditions: 7 days dosing, 3 h post-dosing
[10] = Brain exposure; conditions: in vivo
[11] = molecular target: PCAF (Homo sapiens, UniProt Q92831); assay: HAT family selectivity, PCAF; conditions: at 10 µM
[12] = molecular target: HAT1 (Homo sapiens, UniProt O14929); assay: HAT family selectivity, HAT1; conditions: at 10 µM
[13] = molecular target: MYST3 (Homo sapiens, UniProt Q92794); assay: HAT family selectivity, MYST3; conditions: at 10 µM
[14] = molecular target: MYST4 (Homo sapiens, UniProt Q8WYB5); assay: HAT family selectivity, MYST4; conditions: at 10 µM
MYST4, sequence (Q8WYB5 whole entry, species assumed): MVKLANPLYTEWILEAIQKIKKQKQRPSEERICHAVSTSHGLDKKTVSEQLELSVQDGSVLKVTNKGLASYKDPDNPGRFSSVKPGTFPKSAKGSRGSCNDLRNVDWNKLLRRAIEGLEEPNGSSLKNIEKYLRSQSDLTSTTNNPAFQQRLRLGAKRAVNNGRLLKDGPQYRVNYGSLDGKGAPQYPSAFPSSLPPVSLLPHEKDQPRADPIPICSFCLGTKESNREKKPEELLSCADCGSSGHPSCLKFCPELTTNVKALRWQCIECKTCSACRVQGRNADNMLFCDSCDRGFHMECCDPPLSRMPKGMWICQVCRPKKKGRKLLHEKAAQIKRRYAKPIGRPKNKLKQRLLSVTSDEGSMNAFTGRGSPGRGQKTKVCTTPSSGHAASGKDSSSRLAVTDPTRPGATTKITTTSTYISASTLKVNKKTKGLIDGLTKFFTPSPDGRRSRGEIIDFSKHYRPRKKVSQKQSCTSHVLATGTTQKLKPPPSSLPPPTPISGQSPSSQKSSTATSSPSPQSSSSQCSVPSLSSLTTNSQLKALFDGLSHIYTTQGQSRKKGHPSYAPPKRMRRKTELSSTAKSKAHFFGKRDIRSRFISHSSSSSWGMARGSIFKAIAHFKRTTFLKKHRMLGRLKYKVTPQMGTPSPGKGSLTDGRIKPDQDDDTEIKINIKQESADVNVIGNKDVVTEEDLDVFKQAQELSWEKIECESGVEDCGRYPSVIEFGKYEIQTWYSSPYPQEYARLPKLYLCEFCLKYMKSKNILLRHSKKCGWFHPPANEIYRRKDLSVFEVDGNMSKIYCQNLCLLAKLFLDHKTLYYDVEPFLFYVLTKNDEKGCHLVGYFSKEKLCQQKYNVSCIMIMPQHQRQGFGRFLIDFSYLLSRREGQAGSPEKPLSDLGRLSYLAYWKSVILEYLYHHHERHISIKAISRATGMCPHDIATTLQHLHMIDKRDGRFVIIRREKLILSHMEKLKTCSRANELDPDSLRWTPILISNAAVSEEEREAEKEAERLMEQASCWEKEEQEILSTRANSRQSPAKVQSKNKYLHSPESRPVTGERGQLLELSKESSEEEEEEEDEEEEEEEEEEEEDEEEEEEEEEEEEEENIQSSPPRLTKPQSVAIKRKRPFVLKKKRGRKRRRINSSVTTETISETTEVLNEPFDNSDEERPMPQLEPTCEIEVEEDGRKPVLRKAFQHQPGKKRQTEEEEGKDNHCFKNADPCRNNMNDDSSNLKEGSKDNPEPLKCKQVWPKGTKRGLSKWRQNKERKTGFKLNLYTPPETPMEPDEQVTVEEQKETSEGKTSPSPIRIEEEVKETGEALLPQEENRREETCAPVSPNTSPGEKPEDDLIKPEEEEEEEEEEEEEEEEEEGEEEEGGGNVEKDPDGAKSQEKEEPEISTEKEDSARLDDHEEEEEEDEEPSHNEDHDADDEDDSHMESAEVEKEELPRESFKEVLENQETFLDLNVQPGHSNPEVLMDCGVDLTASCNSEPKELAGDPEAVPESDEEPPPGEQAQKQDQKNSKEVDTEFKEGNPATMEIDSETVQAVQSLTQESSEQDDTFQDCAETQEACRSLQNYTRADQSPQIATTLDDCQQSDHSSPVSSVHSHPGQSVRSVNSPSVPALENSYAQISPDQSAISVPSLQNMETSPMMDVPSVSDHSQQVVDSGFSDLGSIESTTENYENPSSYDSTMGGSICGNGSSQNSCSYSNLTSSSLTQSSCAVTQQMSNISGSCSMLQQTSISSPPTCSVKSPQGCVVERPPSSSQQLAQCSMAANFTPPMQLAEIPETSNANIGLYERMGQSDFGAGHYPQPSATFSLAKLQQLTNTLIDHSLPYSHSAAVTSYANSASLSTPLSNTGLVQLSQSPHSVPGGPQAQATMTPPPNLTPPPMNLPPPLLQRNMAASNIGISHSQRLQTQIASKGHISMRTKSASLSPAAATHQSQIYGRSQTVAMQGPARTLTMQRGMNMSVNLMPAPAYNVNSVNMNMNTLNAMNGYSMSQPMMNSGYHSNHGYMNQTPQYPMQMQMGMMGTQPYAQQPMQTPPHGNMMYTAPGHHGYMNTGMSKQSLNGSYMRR

[15] = molecular target: TIP60 (Homo sapiens, UniProt Q92993); assay: HAT family selectivity, TIP60; conditions: at 10 µM
TIP60, sequence (Q92993 whole entry): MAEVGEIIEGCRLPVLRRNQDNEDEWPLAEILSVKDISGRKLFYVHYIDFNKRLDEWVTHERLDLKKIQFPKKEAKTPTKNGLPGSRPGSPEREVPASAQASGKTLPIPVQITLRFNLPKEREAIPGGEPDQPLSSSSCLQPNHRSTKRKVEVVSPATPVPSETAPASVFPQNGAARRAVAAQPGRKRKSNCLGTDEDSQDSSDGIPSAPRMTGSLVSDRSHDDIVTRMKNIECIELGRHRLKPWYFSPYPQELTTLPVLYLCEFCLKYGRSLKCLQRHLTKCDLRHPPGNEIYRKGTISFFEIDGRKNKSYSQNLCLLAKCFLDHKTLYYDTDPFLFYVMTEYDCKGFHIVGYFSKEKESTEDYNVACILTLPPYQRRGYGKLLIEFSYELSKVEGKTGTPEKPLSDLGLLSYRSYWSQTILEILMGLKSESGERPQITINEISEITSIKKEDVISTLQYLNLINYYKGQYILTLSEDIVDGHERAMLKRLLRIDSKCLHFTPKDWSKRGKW

[16] = molecular target: GCN5L2 (Homo sapiens, UniProt Q92830); assay: HAT family selectivity, GCN5L2; conditions: at 10 µM
[17] = system: H3K9Ac in PC-3 cells; assay: High content microscopy of H3K9Ac in PC-3 cells; conditions: Homo sapiens, PC-3, 3 h, read-out: EC50, decrease of H3K9Ac
[18] = system: AR+ prostate cancer cell lines; assay: Cell proliferation of prostate cancer cell lines
[19] = system: H3K27Ac in PC-3 cells; assay: High content microscopy of H3K27Ac in PC-3 cells; type: cell-based
[20] = molecular target: p300-HAT (Homo sapiens, UniProt Q09472); assay: Surface plasmon resonance binding to p300-HAT; conditions: SPR
p300-HAT, sequence (Q09472 1287-1663 limits assumed): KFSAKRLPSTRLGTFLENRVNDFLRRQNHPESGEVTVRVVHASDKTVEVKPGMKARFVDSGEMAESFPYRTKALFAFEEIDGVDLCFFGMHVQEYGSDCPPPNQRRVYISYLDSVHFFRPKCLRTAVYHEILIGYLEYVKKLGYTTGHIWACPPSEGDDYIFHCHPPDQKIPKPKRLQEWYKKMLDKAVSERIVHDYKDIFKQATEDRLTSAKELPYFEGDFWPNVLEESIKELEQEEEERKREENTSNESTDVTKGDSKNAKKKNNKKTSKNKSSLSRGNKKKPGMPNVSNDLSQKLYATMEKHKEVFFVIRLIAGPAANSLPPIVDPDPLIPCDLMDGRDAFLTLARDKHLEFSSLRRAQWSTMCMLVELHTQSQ

[21] = molecular target: p300-BHC (bromodomain-HAT-C/H3) domain (Homo sapiens, UniProt Q09472); conditions: toward p300 and CBP
p300-BHC (bromodomain-HAT-C/H3) domain, sequence (Q09472 1049-1809 limits assumed): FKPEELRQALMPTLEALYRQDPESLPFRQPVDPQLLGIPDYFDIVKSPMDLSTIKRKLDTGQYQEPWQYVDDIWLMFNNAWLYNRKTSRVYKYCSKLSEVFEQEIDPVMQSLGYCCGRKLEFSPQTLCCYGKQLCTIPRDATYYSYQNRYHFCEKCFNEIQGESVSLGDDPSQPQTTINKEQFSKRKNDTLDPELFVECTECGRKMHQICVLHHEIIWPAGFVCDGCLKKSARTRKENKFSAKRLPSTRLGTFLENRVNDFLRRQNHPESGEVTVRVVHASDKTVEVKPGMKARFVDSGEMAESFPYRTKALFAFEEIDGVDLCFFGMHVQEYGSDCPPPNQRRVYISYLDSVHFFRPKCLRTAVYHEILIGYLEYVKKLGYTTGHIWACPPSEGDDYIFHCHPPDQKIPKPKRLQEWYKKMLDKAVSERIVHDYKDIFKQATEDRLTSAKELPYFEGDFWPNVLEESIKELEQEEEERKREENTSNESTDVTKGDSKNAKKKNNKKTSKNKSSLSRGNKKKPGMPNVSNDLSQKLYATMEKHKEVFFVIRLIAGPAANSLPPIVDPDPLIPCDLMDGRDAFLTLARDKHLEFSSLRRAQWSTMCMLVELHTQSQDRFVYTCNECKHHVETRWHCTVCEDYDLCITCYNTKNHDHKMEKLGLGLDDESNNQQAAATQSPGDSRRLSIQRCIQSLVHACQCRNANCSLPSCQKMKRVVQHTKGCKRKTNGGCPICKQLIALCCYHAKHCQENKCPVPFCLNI

[22] = molecular target: T1, p300-BHC; assay: Thermal shift assay with p300-BHC
[23] = system: DHT responsive genes in 22Rv1 cells; type: cell-based; conditions: androgen depleted 22Rv1 cells

T1 sequence (Q09472 1049-1809 limits assumed): as above
dopamine transporter, sequence (Q01959 whole entry): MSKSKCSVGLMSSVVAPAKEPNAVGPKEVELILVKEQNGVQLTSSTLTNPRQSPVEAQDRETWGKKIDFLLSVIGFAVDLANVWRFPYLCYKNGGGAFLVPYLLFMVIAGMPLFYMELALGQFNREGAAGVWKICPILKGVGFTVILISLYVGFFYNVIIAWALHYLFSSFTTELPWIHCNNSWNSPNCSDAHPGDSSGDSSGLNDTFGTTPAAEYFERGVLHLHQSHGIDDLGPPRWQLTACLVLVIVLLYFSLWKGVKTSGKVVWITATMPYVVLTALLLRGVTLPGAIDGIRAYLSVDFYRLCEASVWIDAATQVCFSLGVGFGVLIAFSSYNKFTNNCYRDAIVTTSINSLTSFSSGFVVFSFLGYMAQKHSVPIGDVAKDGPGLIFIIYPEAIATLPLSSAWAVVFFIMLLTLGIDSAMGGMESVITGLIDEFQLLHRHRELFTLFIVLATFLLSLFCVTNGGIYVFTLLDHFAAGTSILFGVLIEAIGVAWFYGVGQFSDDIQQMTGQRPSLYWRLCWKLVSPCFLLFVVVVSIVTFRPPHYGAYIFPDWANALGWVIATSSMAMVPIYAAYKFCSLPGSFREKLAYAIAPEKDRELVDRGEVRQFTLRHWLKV
serotonin transporter, sequence (P31645 whole entry): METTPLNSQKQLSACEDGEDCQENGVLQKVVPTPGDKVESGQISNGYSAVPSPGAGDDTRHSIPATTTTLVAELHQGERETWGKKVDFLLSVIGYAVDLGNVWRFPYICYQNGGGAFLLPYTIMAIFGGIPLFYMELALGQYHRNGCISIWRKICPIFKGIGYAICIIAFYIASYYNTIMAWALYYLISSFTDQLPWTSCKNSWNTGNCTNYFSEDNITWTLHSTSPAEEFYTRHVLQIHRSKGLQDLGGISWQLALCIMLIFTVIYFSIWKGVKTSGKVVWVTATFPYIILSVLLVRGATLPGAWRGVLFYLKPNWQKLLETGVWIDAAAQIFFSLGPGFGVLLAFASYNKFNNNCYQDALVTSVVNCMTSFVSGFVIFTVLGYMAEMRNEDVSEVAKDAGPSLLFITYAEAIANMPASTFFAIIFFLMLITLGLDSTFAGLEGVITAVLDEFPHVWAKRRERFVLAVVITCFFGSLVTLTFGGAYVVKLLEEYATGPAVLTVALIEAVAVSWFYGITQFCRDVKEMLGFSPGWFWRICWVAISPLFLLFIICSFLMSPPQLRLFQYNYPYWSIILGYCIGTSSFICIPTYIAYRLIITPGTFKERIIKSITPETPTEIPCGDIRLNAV

CNC(=O)Nc1ccc2c(c1)CC[C@@]21OC(=O)N(CC(=O)N(Cc2ccc(F)cc2)[C@@H](C)C(F)(F)F)C1=O [Compound A-485]
binding to dopamine transporter [1]: > 90% | binding to serotonin transporter [2]: > 90% | competition with peptide substrate binding [3]: not competitive with the peptide substrate | inhibition of proliferation [4]: inhibited proliferation | DHT-stimulated PSA expression [5]: attenuated DHT-stimulated PSA expression more potently than the AR antagonist enzalutamide | PSA expression [6]: decreased PSA expression | H3K27Ac at the PSA enhancer [7]: reduced H3K27Ac binding | c-Myc expression [8]: robustly decreased | tumor mRNA levels of SLC45A3 and c-Myc [9]: decrease | brain exposure [10]: does not achieve significant brain exposure | inhibition of PCAF activity [11]: did not inhibit | inhibition of HAT1 activity [12]: did not inhibit | inhibition of MYST3 activity [13]: did not inhibit | inhibition of MYST4 activity [14]: did not inhibit | inhibition of TIP60 activity [15]: did not inhibit | inhibition of GCN5L2 activity [16]: did not inhibit | EC50 [17]: > 10 µM | inhibition of proliferation [18]: potent inhibition of proliferation

CNC(=O)Nc1ccc2c(c1)[C@@]1(CC2)OC(=O)N(CC(=O)N(Cc2ccc(F)cc2)[C@@H](C)C(F)(F)F)C1=O [Compound A-486]
effect on H3K27Ac, in words [19]: inactive | inhibition of proliferation [4]: inactive | PSA expression [6]: inactive | fold weaker binding than A-485 [20]: ~ 1,000 fold | fold less potent than A-485 [21]: ~ 1000 fold

CC1=NN(c2ccc(C(=O)O)cc2)C(=O)/C1=C\c1ccc(-c2cc(C)c(C)cc2[N+](=O)[O-])o1 [Compound C646, reference compound]
effect on H3K27Ac, in words [19]: only modest inhibition

CC(=O)N[C@@H](CCCCNC(=O)CSCCNC(=O)CCNC(=O)[C@H](O)C(C)(C)COP(=O)(O)OP(=O)(O)OC[C@H]1O[C@@H](n2cnc3c(N)ncnc32)[C@H](O)[C@@H]1OP(=O)(O)O)C(N)=O [Lys-CoA]
increase of thermostability of p300-BHC [22]: 5.8 °C

CNC(=O)c1ccc(N2C(=S)N(c3ccc(C#N)c(C(F)(F)F)c3)C(=O)C2(C)C)cc1F [enzalutamide, reference compound]
inhibition of proliferation [4]: inactive | PSA expression [6]: inactive | AR occupancy at the PSA enhancer [7]: decreased AR occupancy | H3K27Ac at the PSA enhancer [7]: reduced H3K27Ac binding | effect on DHT responsive genes, in words [23]: inactive | c-Myc expression [8]: no effect
